The test system of this assay is complementary RNA target. Nature of the assay: Thermal dissociation from complementary RNA target (second Example H). Type of assay: binding. The settings on record: for Td: 50% of bound oligomer denatured from RNA target, pH 6.8 denaturation buffer; for ΔTd/DE Bond: per DE bond. Here is the method:
The following oligomers [SEQ. ID. NO. ] were tested for their ability to bind a complementary RNA target. Each has the same nucleotide sequence but with a different number of phosphodiester and/or methylphosphonate linkages.
An RNA target containing a tandem array of complementary target sequences connected by noncomplementary sequences (170 nt long) was prepared from synthetic DNA oligonucleotides by standard closing techniques.
Each of the test oligomers (above) was end-labeled with ^32 p using […] and T4 polynucleotide kinase. The resulting labeled oligomers were purified on a Nensorb-20 column (New England Nuclear/DuPont) according to the manufacturer's specifications. The final specific activity of each oligomer ranged between 2×10^6 and 4×10^6 cpm/pmol (Cerenkov radiation). Annealing reactions were prepared with one of the test oligomers (100,000 cpms) and 250 pmols of RNA target in 20 mM potassium phosphate, 0.03% potassium sarkosylate, 0.1 mM EDTA, pH 7.2, total volume--200 μL. These annealing reactions were heated to 80° C. and then cooled slowly to 4° C. over a period of about 4 to 6 hours. Next, 20 μL aliquots from each tube were transferred to separate tubes containing 0.5 mL of 0.1 M sodium phosphate, 0.1% Triton X-100, pH 6.8. This transfer step was done on ice. The resulting tubes were individually heated at various temperatures "denaturation temperatures", ranging from 10 to 70° C.) in a circulating water bath for five minutes and then quickly cooled by immersion in crushed ice. Next, 10 μL of Amine BioMag (Advanced Magnetics, Inc., Cat. No. M-4100, 50 mg/mL stock in water) was added to the tube and it was vortexed briefly and placed back on ice for 5 minutes. During this time period, the RAN target strands (both free and bound) separated onto the magnetic support. […] Thus, the amount of radioactivity bound to the support was proportional to the amount of hybridized oligomer remaining at each denaturation temperature after five minutes. A curve was then plotted for the percentage of hybridized oligomer remaining at each denaturation temperature. The thermal dissociation temperature (Td) was defined as the temperature at which 50% of the bound oligomer had denatured away from the RNA target. The following table summarizes the results from this experiment.

As for “5'-GpAmTmAmTdCmTmGpCmGmGmTmGmTpCmCmAmT-3' [Oligomer 1362]”, the Td was 30.7 °C and the “ΔTd/DE Bond” value was 0.5 °C. The substance “5'-GpAmTmAmTmCmTmGmCmGmGmTmGmTmCmCmAmT-3' [Oligomer 1036]” came in with a Td of 29.3 °C.

Turning to “5'-GpAmTpAmTpCpTpGmCpGmGmTpGmTpCpCpAmT-3' [Oligomer 1363]”, the Td stood at 45.2 °C and the “ΔTd/DE Bond” value worked out at 1.8 °C.

As for “5'-GpAmTpAmTpCmTpGmCmGmGmTpGmTpCmCmAmT-3' [Oligomer 1359]”, the Td came out at 34.0 °C and the “ΔTd/DE Bond” value came out at 0.9 °C.

In the case of “5'-GpAmTmAmTmCpTmGmCpGmGmTmGmTmCpCpAmT-3' [Oligomer 1361]”, the Td came out at 32.2 °C and the “ΔTd/DE Bond” value came out at 0.7 °C.

Values taken from patent US5986083A, “Synthetic oligomers having phosphonate internucleosidyl linkages of undefined chirality mixed with non-phosphonate internucleosidyl linkages” (priority 1994, dated 1999).
